Literature values, collected in US20190000794A1, “TRANSMUCOSAL CANNABINOID FORMULATION INCLUDING A CHITOSAN EXCIPEINT” (priority 2017, published 2019).

Details: oral consumption; first pass metabolism in the liver

SMILES: CCCCCc1cc(O)c2c(c1)OC(C)(C)[C@@H]1CCC(C)=C[C@@H]21 [THC, trans-Δ^9-tetrahydrocannabinol]
- fraction of THC consumed orally that is metabolized through first pass metabolism: up to 97%
